Measured values published in the supplement of paper PMC7840683.
± gives the standard deviation of the averaged measurements.

System: HepaRG
Test: LDH release cytotoxicity, % of total lysis control; higher = more cytotoxic
Conditions: 48 h
How it was run: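 Eight-point half-log series of test chemicals, the highest at 100 µM, were given in duplicate for 48 h to single-lot HepaRG cells on collagen I-coated 96-well plates in serum-free induction medium with 0.5% DMSO. A Tecan Safire read resorufin fluorescence from CytoTox-ONE as a measure of LDH in 50 µL spent medium, with 0.1% Triton X in total lysis wells. Percent cytotoxicity was normalized to on-plate vehicle and total lysis controls and averaged over the duplicates.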

Compound | LDH release cytotoxicity (0.03162 µM) [%] | LDH release cytotoxicity (0.1 µM) [%] | LDH release cytotoxicity (0.3162278 µM) [%] | LDH release cytotoxicity (1 µM) [%] | LDH release cytotoxicity (3.16228 µM) [%] | LDH release cytotoxicity (10 µM) [%] | LDH release cytotoxicity (31.6228 µM) [%] | LDH release cytotoxicity (100 µM) [%] | LDH release cytotoxicity (0.031623 µM) [%] | LDH release cytotoxicity (0.316228 µM) [%]
CC1(C)NC(=O)N(c2ccc([N+](=O)[O-])c(C(F)(F)F)c2)C1=O | -1.893 ± 0.013 | -2.02 ± 0.6 | -1.85 ± 0.036 | -2.09 ± 0.12 | -2 ± 0.71 | -1.72 ± 0.061 | -1.66 ± 0.7 | -0.93 ± 0.35 |  | 
c1ccc(OP(Oc2ccccc2)Oc2ccccc2)cc1 [Triphenyl phosphite] | -1.51 ± 2.2 | -1.17 ± 0.097 | -1.23 ± 0.038 | -1.46 ± 0.046 | -0.429 ± 0.71 | -1.22 ± 0.2 | -1.26 ± 0.45 | 1.56 ± 0.67 |  | 
O=C(O)c1c(Cl)ccc2cc(Cl)cnc12 [Quinclorac] | -0.412 ± 0.14 | -0.369 ± 0.069 | -0.616 ± 0.54 | -0.762 ± 0.34 | -0.281 ± 0.41 | -0.297 ± 0.37 | 0.046 ± 0.18 | 0.495 ± 0.038 |  | 
CCCCCCCCCCCCCCC [Pentadecane] | -1.39 ± 0.28 | -0.5079 ± 0.0034 | -0.0639 ± 1.3 | -1.27 ± 1.5 | -0.987 ± 0.93 | -0.163 ± 0.94 | 0.517 ± 0.29 | 1.96 ± 1.3 |  | 
CCCCCOC(=O)COc1cc(N2C(=O)C3=C(CCCC3)C2=O)c(F)cc1Cl [Flumiclorac-pentyl] | -1.94 ± 0.45 | -1.12 ± 1.1 | -0.329 ± 0.33 | -1.17 ± 0.56 | -0.793 ± 0.22 | -0.278 ± 0.39 | -1.05 ± 0.035 | 0.436 ± 0.073 |  | 
CCOP(=S)(OCC)Oc1nc(Cl)c(Cl)cc1Cl [Chlorpyrifos] | 0.564 ± 0.48 | -0.761 ± 0.45 | -1.52 ± 0.69 | -1.1 ± 0.089 | -0.11 ± 0.44 | -0.852 ± 0.46 | -0.29 ± 0.55 | 0.964 ± 0.32 |  | 
CC(C)[O-].CC(C)[O-].[O-]CCN(CCO)CCO.[O-]CCN(CCO)CCO.[Ti+4] [Isopropyl triethanolamine titanate] | -5.22 ± 4.5 | -1.09 ± 0.96 | -0.881 ± 0.2 | -0.333 ± 0.037 | 0.622 ± 0.39 | 0.156 ± 1.4 | 0.0089 ± 0.55 | 0.6851 ± 0.0067 |  | 
CCOP(=S)(OCC)SCCSCC [Disulfoton] | -1.14 ± 0.34 | -1.12 ± 0.75 | -1.03 ± 0.2 | -1.51 ± 0.2 | -1.34 ± 0.37 | -1.32 ± 0.63 | -1.01 ± 0.54 | -0.345 ± 0.13 |  | 
ClC1=C(Cl)C2(Cl)C3C(Cl)C(Cl)CC3C1(Cl)C2(Cl)Cl (centres undefined) [Chlordane] | -0.889 ± 1.7 | -0.0312 ± 0.73 | -1.4 ± 0.067 | -2.2 ± 0.83 | -1.5 ± 0.36 | -0.57 ± 0.073 | -0.758 ± 0.6 | 12 ± 4.7 |  | 
C=CC(=C)CCC=C(C)C [Myrcene] |  | -2.39 ± 1 |  | -1.45 ± 0.82 | -1.74 ± 1.4 | -1.93 ± 0.083 | -1.8 ± 0.49 | 0.279 ± 0.4 | -1.27 ± 1.6 | -2.35 ± 0.3
CS(=O)(=O)NC(=O)c1cc(Oc2ccc(C(F)(F)F)cc2Cl)ccc1[N+](=O)[O-] [Fomesafen] | -1.12 ± 1.1 | -1.48 ± 0.59 | 0.3 ± 0.32 | -0.63 ± 0.72 | -0.773 ± 0.02 | 0.708 ± 0.54 | 0.985 ± 0.17 | 3.41 ± 0.9 |  | 
CC(Oc1ccc(CNC(=O)c2cccnc2Oc2ccc3c(c2)OCO3)c(F)c1)C(=O)O (centres undefined) | 0.432 ± 0.73 | -0.868 ± 0.12 | -1.04 ± 0.64 | -1.35 ± 0.25 | -1.24 ± 0.19 | -0.8947 ± 0.0016 | -0.798 ± 0.6 | -0.624 ± 0.43 |  | 
COc1ccc2c(c1)c(CC(=O)O)c(C)n2C(=O)c1ccc(Cl)cc1 [1-(p-Chlorobenzoyl)-5-methoxy-2-methyl-Indole-3-acetic acid] | -0.418 ± 0.2 | -0.408 ± 0.23 | -0.399 ± 0.2 | 0.493 ± 0.042 | 0.818 ± 0.36 | 0.284 ± 0.81 | 0.637 ± 0.53 | 1.2 ± 0.22 |  | 
CCCCCCCCCCC [Undecane] |  | -0.1 ± 0.21 |  | -2.3 ± 0.12 | -2.08 ± 1.2 | -0.723 ± 1.2 | -0.989 ± 1.3 | 1.06 ± 0.61 | -1.34 ± 0.15 | -2.37 ± 1.8
O=C(NC(=O)c1c(F)cccc1F)Nc1ccc(OC(F)(F)C(F)OC(F)(F)F)c(Cl)c1 (centres undefined) [Novaluron] |  | -3.48 ± 0.26 |  | -4.4 ± 1.3 | -3.9 ± 0.22 | -4.16 ± 0.54 | -1.88 ± 0.94 | 4.68 ± 1.6 | -0.704 ± 1.1 | -3.95 ± 0.86
COc1ccc(C(=CC(=O)N2CCOCC2)c2ccc(Cl)cc2)cc1OC [Dimethomorph] | -0.689 ± 0.5 | -1.52 ± 0.24 | -1.7 ± 0.055 | -1.1 ± 0.47 | -0.768 ± 0.71 | -0.565 ± 0.54 | -0.618 ± 0.33 | 1.09 ± 0.43 |  | 
ClCCOCCCl [Bis(2-chloroethyl) ether] | -2.26 ± 0.94 | -1.98 ± 0.48 | -2.69 ± 0.3 | -2.69 ± 0.29 | -1.96 ± 0.21 | -2.12 ± 0.39 | -2.25 ± 0.35 | -0.123 ± 0.23 |  | 
CCCCOCCOCCO [2-(2-Butoxyethoxy)ethanol] | -0.987 ± 0.27 | -1.94 ± 0.23 | -1.79 ± 0.24 | -2.09 ± 0.25 | -2.29 ± 0.05 | -1.67 ± 0.18 | -1.25 ± 0.3 | -0.813 ± 0.4 |  | 
